# Measured values as given in patent US20250144094A1 (Erasca, Inc., priority 2021, published 2025).
# Molecular target: Recombinant human ULK1 (1-649) (Homo sapiens (Human), UniProt O75385)
# Test: ULK1 ADP Glo kinase activity assay (MBP substrate)
# Conditions: 25° C., 40 minutes, read-out: ULK1 biochemical IC50
# Procedure: Recombinant human ULK1 (1-649) protein expressed in Sf9 insect cells was obtained from SignalChem (Vancouver, BC), catalog #U01-11G. Active kinase was purified via N-terminal GST tag to >85% purity.
# ADP GLO Kinase Assay Reagents were obtained from Promega Corp (Madison, WI), catalog #V9104.
# MBP (myelin basic protein) substrate, bovine, purified, was obtained from Sigma (St. Louis, MO), catalog #M1891.
# ULK1 inhibitor potency was determined using the luminescent ADP Glo Kinase Assay (Promega), a universal ADP detection system that measures kinase activity by quantifying the amount of ADP produced during a kinase reaction. ULK1 kinase reactions are performed in a standard 96-well microplate (20 uL reaction volume) at 25° C. for 40 minutes in the presence or absence of the test compound (12-point dilution series starting at 10 uM). Addition of MBP substrate and ATP initiates the kinase reaction.
# The standard ADP Glo assay is performed in two steps. In step one, following the kinase reaction, an equal volume of ADP-Glo™ Reagent (20 uL) is added to terminate the kinase reaction and deplete the remaining ATP. In the second step, the Kinase Detection Reagent (10 uL) is added to simultaneously convert ADP to ATP and allow the newly synthesized ATP to be measured using a luciferase/luciferin reaction. Step two of the ADP Glo assay is performed in a white 384-well plate (20 uL final volume). Thirty minutes after the addition of the Detection reagent, light generated from the luciferase reaction is measured (1 second exposure) using a microplate compatible luminometer (CLARIOstar, BMG Labtech).
# Inhibition of ULK1 kinase activity is determined for each test compound by comparison to DMSO only control wells. Inhibitor IC50 was calculated by plotting the change in luminescence after 30 minutes (response) versus inhibitor concentration (in log molar) then applying the four-parameter variable slope curve fit (GraphPad Prism). Inhibition of ULK1 in biochemical assay is found in Table 3.
# Sequence of Recombinant human ULK1 (1-649) (O75385 1-649): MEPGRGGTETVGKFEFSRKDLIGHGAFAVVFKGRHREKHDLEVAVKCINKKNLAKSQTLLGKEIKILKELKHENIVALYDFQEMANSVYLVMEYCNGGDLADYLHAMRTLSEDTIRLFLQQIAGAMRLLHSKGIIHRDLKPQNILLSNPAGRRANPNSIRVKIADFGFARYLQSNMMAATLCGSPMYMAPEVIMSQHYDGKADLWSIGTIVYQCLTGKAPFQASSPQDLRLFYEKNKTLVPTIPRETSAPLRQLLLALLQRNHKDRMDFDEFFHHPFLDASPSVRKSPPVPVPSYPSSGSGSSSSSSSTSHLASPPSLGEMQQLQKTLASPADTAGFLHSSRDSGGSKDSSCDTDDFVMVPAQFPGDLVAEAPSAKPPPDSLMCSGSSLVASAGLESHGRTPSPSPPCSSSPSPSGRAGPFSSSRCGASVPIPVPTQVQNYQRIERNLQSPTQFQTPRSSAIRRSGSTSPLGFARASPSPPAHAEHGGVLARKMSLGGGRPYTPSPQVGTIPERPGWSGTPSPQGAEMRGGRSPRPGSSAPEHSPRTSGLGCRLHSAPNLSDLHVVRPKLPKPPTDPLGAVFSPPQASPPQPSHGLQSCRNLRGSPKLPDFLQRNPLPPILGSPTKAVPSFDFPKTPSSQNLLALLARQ
row,Compound,IC50 [µM]
1,"CN1CCN(c2ccc(Nc3ncc(C(F)(F)F)c(-c4cc(S(C)(=O)=O)cs4)n3)cc2)CC1 [Example 103, N-(4-(4-methylpiperazin-1-yl)phenyl)-4-(4-(methylsulfonyl)thiophen-2-yl)-5-(trifluoromethyl)pyrimidin-2-amine]",≤ 0.01
2,"CS(=O)(=O)c1csc(-c2nc(Nc3cc4c(cc3F)CCNC4)ncc2C(F)(F)F)c1 [Example 110, 6-fluoro-N-[4-(4-methylsulfonyl-2-thienyl)-5-(trifluoromethyl)pyrimidin-2-yl]-1,2,3,4-tetrahydroisoquinolin-7-amine]",≤ 0.01
3,"CN1CC(N2CCc3cc(Nc4ncc(C(F)(F)F)c(-c5cc(C(N)=O)cs5)n4)c(Cl)cc3C2)C1 [Example 11, 5-(2-((7-chloro-2-(1-methylazetidin-3-yl)-1,2,3,4-tetrahydroisoquinolin-6-yl)amino)-5-(trifluoromethyl)pyrimidin-4-yl)thiophene-3-carboxamide]",0.01 to 0.05
4,"CS(=O)(=O)c1csc(-c2nc(Nc3cc(C4CNC4)ccc3Cl)ncc2C(F)(F)F)c1 [Example 121, N-(5-(azetidin-3-yl)-2-chlorophenyl)-4-(4-(methylsulfonyl)thiophen-2-yl)-5-(trifluoromethyl)pyrimidin-2-amine]",0.05 to 0.1
5,"CS(=O)(=O)c1cc(-c2nc(Nc3cc4c(cc3Cl)CNCC4)ncc2C(F)(F)F)sc1C1CCOCC1 [Example 97, 7-chloro-N-(4-(4-(methylsulfonyl)-5-(tetrahydro-2H-pyran-4-yl)thiophen-2-yl)-5-(trifluoromethyl)pyrimidin-2-yl)-1,2,3,4-tetrahydroisoquinolin-6-amine]",≤ 0.01
6,"CN1CCN(c2ccc(Nc3ncc(C(F)(F)F)c(-c4cc5c(s4)CCNC5=O)n3)c(C3CC3)c2)CC1 [Example 36, 2-(2-((2-Cyclopropyl-4-(4-methylpiperazin-1-yl)phenyl)amino)-5-(trifluoromethyl)pyrimidin-4-yl)-6,7-dihydrothieno[3,2-c]pyridin-4(5H)-one]",≤ 0.01
7,"CN1CCc2cc(Nc3ncc(C(F)(F)F)c(-c4cc(C(N)=O)cs4)n3)c(C3CC3)cc2C1 [Example 14, 5-(2-((7-cyclopropyl-2-methyl-1,2,3,4-tetrahydroisoquinolin-6-yl)amino)-5-(trifluoromethyl)pyrimidin-4-yl)thiophene-3-carboxamide]",≤ 0.01
8,"CN(C)C(=O)c1ccc(-c2nc(Nc3cc4c(cc3Cl)CNCC4)ncc2C(F)(F)F)s1 [Example 3, 5-(2-((7-chloro-1,2,3,4-tetrahydroisoquinolin-6-yl)amino)-5-(trifluoromethyl)pyrimidin-4-yl)-N,N-dimethylthiophene-2-carboxamide]",≤ 0.01
9,CS(=O)(=O)c1cc(-c2nc(Nc3cc4c(cc3Cl)CN(C(=O)C(F)(F)F)CC4)ncc2C(F)(F)F)sc1C1=CCOCC1 [compound 74],> 0.5

# Further lines, results first:
row,IC50 [µM],Compound
1,0.1 to 0.5,"O=C1NCCS(=O)(=O)c2cc(-c3nc(Nc4cc5c(cc4Cl)CN(CC(F)(F)F)CC5)ncc3C(F)(F)F)sc21 [Example 125, 7-(2-((7-chloro-2-(2,2,2-trifluoroethyl)-1,2,3,4-tetrahydroisoquinolin-6-yl)amino)-5-(trifluoromethyl)pyrimidin-4-yl)-3,4-dihydrothieno[2,3-f][1,4]thiazepin-5(2H)-one 1,1-dioxide]"
2,≤ 0.01,"NC(=O)c1csc(-c2nc(Nc3cc4c(cc3Cl)CN(C3CNC3)CC4)ncc2C(F)(F)F)c1 [Example 5, 5-(2-((2-(azetidin-3-yl)-7-chloro-1,2,3,4-tetrahydroisoquinolin-6-yl)amino)-5-(trifluoromethyl)pyrimidin-4-yl)thiophene-3-carboxamide]"
3,0.01 to 0.05,"CN1CCc2cc(Nc3ncc(C(F)(F)F)c(-c4cc(S(C)(=O)=O)c(CN5CCOCC5)s4)n3)c(Cl)cc2C1 [Example 67, 7-chloro-2-methyl-N-(4-(4-(methylsulfonyl)-5-(morpholinomethyl)thiophen-2-yl)-5-(trifluoromethyl)pyrimidin-2-yl)-1,2,3,4-tetrahydroisoquinolin-6-amine]"
4,≤ 0.01,"Cc1nn(C2CCN(C)CC2)cc1Nc1ncc(C(F)(F)F)c(-c2cc(S(C)(=O)=O)cs2)n1 [Example 119, N-[3-methyl-1-(1-methyl-4-piperidyl)pyrazol-4-yl]-4-(4-methylsulfonyl-2-thienyl)-5-(trifluoromethyl)pyrimidin-2-amine]"
5,0.01 to 0.05,"CS(=O)(=O)c1cc(-c2nc(Nc3cc4c(cc3Cl)CNCC4)ncc2C(F)(F)F)sc1CN1CCOCC1 [Example 62, 7-chloro-N-(4-(4-(methylsulfonyl)-5-(morpholinomethyl)thiophen-2-yl)-5-(trifluoromethyl)pyrimidin-2-yl)-1,2,3,4-tetrahydroisoquinolin-6-amine]"
6,≤ 0.01,"CS(=O)(=O)c1csc(-c2nc(Nc3ccc4c(c3)CCNC4)ncc2C(F)(F)F)c1 [Example 105, N-(4-(4-(methylsulfonyl)thiophen-2-yl)-5-(trifluoromethyl)pyrimidin-2-yl)-1,2,3,4-tetrahydroisoquinolin-6-amine]"
7,≤ 0.01,"CCc1cc2c(cc1Nc1ncc(C(F)(F)F)c(-c3cc(C(N)=O)cs3)n1)CCN(C)C2 [Example 13, 5-(2-((7-ethyl-2-methyl-1,2,3,4-tetrahydroisoquinolin-6-yl)amino)-5-(trifluoromethyl)pyrimidin-4-yl)thiophene-3-carboxamide]"
8,≤ 0.01,"CN1Cc2cc(Nc3ncc(C(F)(F)F)c(-c4cc(C(N)=O)cs4)n3)c(C3CC3)cc2C1 [Example 19, 5-(2-((6-Cyclopropyl-2-methylisoindolin-5-yl)amino)-5-(trifluoromethyl)pyrimidin-4-yl)thiophene-3-carboxamide]"
9,0.1 to 0.5,"CN1CC(c2ccc(Cl)c(Nc3ncc(C(F)(F)F)c(-c4cc(S(C)(=O)=O)cs4)n3)c2)C1 [Example 122, N-(2-chloro-5-(1-methylazetidin-3-yl)phenyl)-4-(4-(methylsulfonyl)thiophen-2-yl)-5-(trifluoromethyl)pyrimidin-2-amine]"
10,> 0.5,"Cc1nc(=O)c2cc(-c3nc(Nc4cc5c(cc4Cl)CNCC5)ncc3C(F)(F)F)sc2[nH]1 [Example 50, 6-(2-((7-chloro-1,2,3,4-tetrahydroisoquinolin-6-yl)amino)-5-(trifluoromethyl)pyrimidin-4-yl)-2-methylthieno[2,3-d]pyrimidin-4(1H)-one]"
11,≤ 0.01,"CS(=O)(=O)c1cc(-c2nc(Nc3cc4c(cc3Cl)CNCC4)ncc2C(F)(F)F)sc1C1CCS(=O)(=O)CC1 [Example 104, 4-(5-(2-((7-chloro-1,2,3,4-tetrahydroisoquinolin-6-yl)amino)-5-(trifluoromethyl)pyrimidin-4-yl)-3-(methylsulfonyl)thiophen-2-yl)tetrahydro-2H-thiopyran 1,1-dioxide]"
12,≤ 0.01,"CN1Cc2cc(Cl)c(Nc3ncc(C(F)(F)F)c(-c4cc(C(N)=O)cs4)n3)cc2C1 [Example 17, 5-(2-((6-Chloro-2-methylisoindolin-5-yl)amino)-5-(trifluoromethyl)pyrimidin-4-yl)thiophene-3-carboxamide]"
13,≤ 0.01,"O=C1NCCCc2sc(-c3nc(Nc4cc5c(cc4Cl)CNCC5)ncc3C(F)(F)F)cc21 [Example 28, 2-(2-((7-Chloro-1,2,3,4-tetrahydroisoquinolin-6-yl)amino)-5-(trifluoromethyl)pyrimidin-4-yl)-5,6,7,8-tetrahydro-4H-thieno[3,2-c]azepin-4-one]"
